# Measurements: US5216022A, “Aromatic esters of phenylenedialkanoates as inhibitors of human neutrophil elastase” (Cortech, Inc., priority 1991, dated 1993)
# Molecular target: T1, human neutrophil elastase (HNE) (Homo sapiens, UniProt P08246)
# T1 sequence (P08246 30-267): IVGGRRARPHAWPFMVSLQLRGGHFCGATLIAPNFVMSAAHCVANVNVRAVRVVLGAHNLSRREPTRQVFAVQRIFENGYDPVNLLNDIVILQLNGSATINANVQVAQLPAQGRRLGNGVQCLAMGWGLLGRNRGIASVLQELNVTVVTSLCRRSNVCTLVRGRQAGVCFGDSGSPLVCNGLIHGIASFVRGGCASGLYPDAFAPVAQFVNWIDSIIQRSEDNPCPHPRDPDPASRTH
# Test: Potency (IC50 determination) against human neutrophil elastase, chromogenic substrate N-methoxysuccinyl-ala-ala-pro-val-pNA, 405 nm
# Assay type: biochemical
# Settings: pH 7.7, 7 min incubation at room temperature
# Procedure: A) 0.075M sodium phosphate, 20% dimethyl sulfoxide (DMSO),pH 7.7=substrate and inhibitor buffer
# B) 0.075M sodium phosphate no DMSO,pH7.7=inhibitor buffer
# C) 10 mM human neutrophil elastase (HNE) substrate=N-methoxysuccinyl-ala-ala-pro-val-pNA in DMSO
# D) 0.01 sodium acetate, pH 5.5=enzyme buffer (storage)
# E) HNE (1 mg) dissolved in 1 mL of […] for storage at -20° C.
# Make a 10 mM stock of the inhibitor in DMSO. Dilute an aliquot (10 μL) up to 1.0 mL in reagent A (100 μM). Serially dilute 100 μL of the 100 μM in reagent A. Apply 100 μL of the diluted material to the wells of a 96-well plate. Dilute an aliquot of reagent F 1:150 in reagent D, apply 50 μL aliquots to the indicator wells and incubate 7 minutes at room temperature.
# The HNE substrate solution is made by taking 100 μl of reagent C into 500 μL of reagent A and 400 μL of reagent B. After the 7 minutes of incubation, the substrate (50 μL) is applied to each well. The HNE catalyzed reaction is then monitored spectrophotometrically at 405 nm using an ELISA plate reader machine (UVMAX, Molecular Devices) which processes the raw data with an on-board kinetics program. The enzyme activity is plotted against different inhibitor concentrations and IC50 value is determined by using a curve fitting software program.
row,SMILES,IC50 [nM]
1,CC(C)(C[S+]([O-])c1ccc(OC(=O)C(C)(C)c2ccc(C(C)(C)C(=O)Oc3ccc([S+]([O-])CC(C)(C)C(=O)O)cc3)cc2)cc1)C(=O)O (stereo not drawn) [Compound 11],23
2,CCC(C(=O)Oc1ccc([S+](C)[O-])cc1)c1ccc(C(CC)C(=O)Oc2ccc([S+](C)[O-])cc2)cc1 (stereo not drawn) [Compound 2],224
3,CCC(C(=O)Oc1ccc(S(=O)(=O)C(C)(C)C(=O)O)cc1)c1ccc(C(CC)C(=O)Oc2ccc(S(=O)(=O)C(C)(C)C(=O)O)cc2)cc1 (stereo not drawn) [Compound 9],37
4,CC(C)(C(=O)Oc1ccc(S(=O)(=O)CC(=O)O)cc1)c1ccc(C(C)(C)C(=O)Oc2ccc(S(=O)(=O)CC(=O)O)cc2)cc1 [Compound 15],77
5,CCC(C(=O)Oc1ccc([S+]([O-])CC(C)(C)C(=O)O)cc1)c1ccc(C(CC)C(=O)Oc2ccc([S+]([O-])CC(C)(C)C(=O)O)cc2)cc1 (stereo not drawn) [Compound 5],40
6,CCC(C(=O)Oc1ccc(S(=O)(=O)CC(C)(C)C(=O)O)cc1)c1ccc(C(CC)C(=O)Oc2ccc(S(=O)(=O)CC(C)(C)C(=O)O)cc2)cc1 (stereo not drawn) [Compound 6],28
7,CC(C)(CSc1ccc(OC(=O)C(C)(C)c2ccc(C(C)(C)C(=O)Oc3ccc(SCC(C)(C)C(=O)O)cc3)cc2)cc1)C(=O)O [Compound 10],253
8,CC(C)(C(=O)Oc1ccc(SCC(=O)O)cc1)c1ccc(C(C)(C)C(=O)Oc2ccc(SCC(=O)O)cc2)cc1 [Compound 13],835
9,"CCC(C(=O)Oc1ccc(SC)cc1)c1ccc(C(CC)C(=O)Oc2ccc(SC)cc2)cc1 (stereo not drawn) [Compound 1, Bis(4-Methylmercaptophenyl)2'-(1,4-phenylene)dibutyrate]",8440
10,CCC(C(=O)Oc1ccc([S+]([O-])C(C)(C)C(=O)O)cc1)c1ccc(C(CC)C(=O)Oc2ccc([S+]([O-])C(C)(C)C(=O)O)cc2)cc1 (stereo not drawn) [Compound 8],74
11,CCC(C(=O)Oc1ccnc(SC)n1)c1ccc(C(CC)C(=O)Oc2ccnc(SC)n2)cc1 (stereo not drawn) [Compound 28],64
12,CCC(C(=O)Oc1ccc(S(=O)(=O)CC(C)(C)C(=O)O)cc1)c1cccc(C(CC)C(=O)Oc2ccc(S(=O)(=O)CC(C)(C)C(=O)O)cc2)c1 (stereo not drawn) [Compound 21],36
13,CCC(C(=O)Oc1ccc(S(C)(=O)=O)cc1)c1ccc(C(CC)C(=O)Oc2ccc(S(C)(=O)=O)cc2)cc1 (stereo not drawn) [Compound 3],62
14,CCC(C(=O)Oc1ccc(SCC(C)(C)C(=O)O)cc1)c1ccc(C(CC)C(=O)Oc2ccc(SCC(C)(C)C(=O)O)cc2)cc1 (stereo not drawn) [Compound 4],120
15,CCC(C(=O)Oc1ccc(SCC(C)(C)C(=O)O)cc1)c1cccc(C(CC)C(=O)Oc2ccc(SCC(C)(C)C(=O)O)cc2)c1 (stereo not drawn) [Compound 19],198
